Experimental data taken from patent US11420973B2, “Amide substituted indole compounds useful as TLR inhibitors” (BRISTOL-MYERS SQUIBB COMPANY, priority 2017, dated 2022).
Like-named read-outs stand apart in the source and are kept apart here.

What was measured:
[1] = molecular target: human TLR9 (Homo sapiens (Human), UniProt Q9NR96); test: TLR9 inhibition reporter assay (HEK-Blue SEAP reporter, ODN2006 stimulation); conditions: read-out: TLR9 IC50, HEK-Blue cells overexpressing human TLR9, ODN2006 5 nM, SEAP reporter;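 further: SEAP reporter under IFN-β minimal promoter with five NF-κB and AP-1 sites, 22 h incubation, compounds 0.05 nM–50 µM, inhibition relative to agonist plus DMSO versus known inhibitor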
Sequence of human TLR9 (Q9NR96 26-1032): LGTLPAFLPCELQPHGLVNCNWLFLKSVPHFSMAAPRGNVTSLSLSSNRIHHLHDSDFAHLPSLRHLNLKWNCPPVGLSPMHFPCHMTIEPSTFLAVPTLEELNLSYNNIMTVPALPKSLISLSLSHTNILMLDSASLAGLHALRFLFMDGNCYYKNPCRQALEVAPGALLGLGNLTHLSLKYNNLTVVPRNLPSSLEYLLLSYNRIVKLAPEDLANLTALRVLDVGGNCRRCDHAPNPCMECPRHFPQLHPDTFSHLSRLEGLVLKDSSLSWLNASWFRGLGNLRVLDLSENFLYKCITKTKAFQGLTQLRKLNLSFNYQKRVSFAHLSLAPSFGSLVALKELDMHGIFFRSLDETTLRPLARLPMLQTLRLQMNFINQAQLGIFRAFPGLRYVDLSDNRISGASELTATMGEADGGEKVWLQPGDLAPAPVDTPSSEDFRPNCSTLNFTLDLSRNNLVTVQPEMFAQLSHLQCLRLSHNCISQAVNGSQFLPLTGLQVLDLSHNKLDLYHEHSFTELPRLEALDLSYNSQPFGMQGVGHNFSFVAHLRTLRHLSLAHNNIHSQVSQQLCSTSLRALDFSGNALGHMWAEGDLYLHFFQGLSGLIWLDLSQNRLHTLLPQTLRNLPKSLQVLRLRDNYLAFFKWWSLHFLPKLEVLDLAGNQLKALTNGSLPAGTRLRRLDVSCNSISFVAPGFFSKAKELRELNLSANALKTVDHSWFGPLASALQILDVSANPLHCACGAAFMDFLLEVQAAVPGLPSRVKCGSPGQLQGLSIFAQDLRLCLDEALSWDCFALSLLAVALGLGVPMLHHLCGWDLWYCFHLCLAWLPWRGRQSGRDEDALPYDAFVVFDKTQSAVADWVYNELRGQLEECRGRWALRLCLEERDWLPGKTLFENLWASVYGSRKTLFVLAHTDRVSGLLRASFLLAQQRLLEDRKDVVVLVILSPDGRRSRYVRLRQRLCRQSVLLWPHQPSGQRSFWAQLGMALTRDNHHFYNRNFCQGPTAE

[2] = molecular target: human TLR8 (Homo sapiens (Human), UniProt Q9NR97); test: TLR8 inhibition reporter assay (HEK-Blue SEAP reporter, R848 stimulation); conditions: read-out: TLR8 IC50, HEK-Blue cells overexpressing human TLR8, R848 15.9 μM, SEAP reporter;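 further: SEAP driven by IFN-β minimal promoter with NF-κB and AP-1 sites, 22 h incubation, compounds 0.05 nM–50 µM, inhibition scaled between agonist plus DMSO and reference inhibitor wells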
Sequence of human TLR8 (Q9NR97 27-1041): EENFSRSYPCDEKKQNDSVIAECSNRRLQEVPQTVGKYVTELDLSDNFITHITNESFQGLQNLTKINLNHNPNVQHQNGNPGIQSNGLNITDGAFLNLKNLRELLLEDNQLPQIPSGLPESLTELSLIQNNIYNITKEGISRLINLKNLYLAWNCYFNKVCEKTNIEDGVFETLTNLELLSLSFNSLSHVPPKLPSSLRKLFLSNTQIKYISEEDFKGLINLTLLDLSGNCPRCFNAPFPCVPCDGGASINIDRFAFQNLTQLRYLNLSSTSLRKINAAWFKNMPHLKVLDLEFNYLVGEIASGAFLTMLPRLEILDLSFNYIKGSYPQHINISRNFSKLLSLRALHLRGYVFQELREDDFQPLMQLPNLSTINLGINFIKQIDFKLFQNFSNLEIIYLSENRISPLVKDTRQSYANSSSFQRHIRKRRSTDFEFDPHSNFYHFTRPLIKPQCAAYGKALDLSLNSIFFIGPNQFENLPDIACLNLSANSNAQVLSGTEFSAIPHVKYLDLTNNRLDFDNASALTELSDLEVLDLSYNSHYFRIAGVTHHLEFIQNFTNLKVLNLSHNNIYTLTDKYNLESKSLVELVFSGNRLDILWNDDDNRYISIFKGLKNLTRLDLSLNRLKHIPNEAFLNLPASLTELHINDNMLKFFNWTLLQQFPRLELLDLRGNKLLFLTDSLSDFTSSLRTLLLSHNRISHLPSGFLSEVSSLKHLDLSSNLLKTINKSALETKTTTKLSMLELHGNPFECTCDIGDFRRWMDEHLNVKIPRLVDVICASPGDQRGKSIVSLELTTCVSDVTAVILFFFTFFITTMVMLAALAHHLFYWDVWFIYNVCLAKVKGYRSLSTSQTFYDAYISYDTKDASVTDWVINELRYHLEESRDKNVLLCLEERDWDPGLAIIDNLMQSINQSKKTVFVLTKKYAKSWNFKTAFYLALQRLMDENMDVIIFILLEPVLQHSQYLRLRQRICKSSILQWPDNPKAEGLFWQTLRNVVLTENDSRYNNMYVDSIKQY

[3] = molecular target: human TLR7 (Homo sapiens (Human), UniProt Q9NYK1); test: TLR7 inhibition reporter assay (HEK-Blue SEAP reporter, gardiquimod stimulation); format: cell-based; conditions: HEK-Blue cells overexpressing human TLR7, gardiquimod 7.5 μM
Sequence of human TLR7 (Q9NYK1 27-1049): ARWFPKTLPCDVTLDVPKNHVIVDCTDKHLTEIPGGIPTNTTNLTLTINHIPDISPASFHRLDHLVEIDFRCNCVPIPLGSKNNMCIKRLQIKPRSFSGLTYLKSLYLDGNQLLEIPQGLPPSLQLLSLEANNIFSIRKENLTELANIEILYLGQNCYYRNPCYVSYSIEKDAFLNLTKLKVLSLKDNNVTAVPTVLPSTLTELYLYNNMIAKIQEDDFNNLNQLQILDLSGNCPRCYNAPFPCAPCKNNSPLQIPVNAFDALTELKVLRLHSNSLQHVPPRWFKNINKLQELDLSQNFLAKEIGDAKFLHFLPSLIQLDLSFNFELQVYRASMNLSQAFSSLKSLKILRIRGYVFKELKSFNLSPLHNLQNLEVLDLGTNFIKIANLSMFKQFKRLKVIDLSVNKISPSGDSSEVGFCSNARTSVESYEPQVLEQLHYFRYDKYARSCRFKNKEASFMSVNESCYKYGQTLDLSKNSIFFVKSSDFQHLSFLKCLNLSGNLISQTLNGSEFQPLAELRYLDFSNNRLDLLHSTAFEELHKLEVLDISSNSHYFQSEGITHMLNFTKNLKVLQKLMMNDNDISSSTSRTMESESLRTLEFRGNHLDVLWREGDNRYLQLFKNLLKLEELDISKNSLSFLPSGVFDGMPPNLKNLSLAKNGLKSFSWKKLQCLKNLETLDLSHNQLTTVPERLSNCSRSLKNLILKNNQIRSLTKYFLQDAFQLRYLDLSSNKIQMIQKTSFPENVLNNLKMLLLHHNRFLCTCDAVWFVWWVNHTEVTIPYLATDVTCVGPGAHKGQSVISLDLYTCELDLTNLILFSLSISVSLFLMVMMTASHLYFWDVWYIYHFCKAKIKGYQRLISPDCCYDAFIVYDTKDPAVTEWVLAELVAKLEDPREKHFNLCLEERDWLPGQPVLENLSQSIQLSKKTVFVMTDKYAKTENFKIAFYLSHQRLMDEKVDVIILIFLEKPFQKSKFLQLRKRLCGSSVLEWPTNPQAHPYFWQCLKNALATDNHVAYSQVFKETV
Experimental: HEK-Blue™-cells (Invivogen) overexpressing human TLR7, TLR8 or TLR9 receptors were used for screening inhibitors of these receptors using an inducible SEAP (secreted embryonic alkaline phosphatase) reporter gene under the control of the IFN-β minimal promoter fused to five NF-κB and AP-1-binding sites. Briefly, cells are seeded into Greiner 384 well plates (15000 cells per well for TLR7, 20,000 for TLR8 and 25,000 for TLR9) and then treated with test compounds in DMSO to yield a final dose response concentration range of 0.05 nM-50 μM. After a 30 minute compound pre-treatment at room temperature, the cells are then stimulated with a TLR7 ligand (gardiquimod at a final concentration of 7.5 μM), TLR8 ligand (R848 at a final concentration of 15.9 μM) or TLR9 ligand (ODN2006 at a final concentration of 5 nM) to activate NF-κB and AP-1 which induce the production of SEAP. After a 22 hour incubation at 37° C., 5% CO2, SEAP levels are determined with the addition of HEK-Blue™ Detection reagent (Invivogen), a cell culture medium that allows for detection of SEAP, according to manufacturer's specifications.

Row | Compound | IC50 [1] [nM] | IC50 [2] [nM] | IC50 [3] [nM] | IC50 ([1]; listed as 700) [nM] | IC50 ([2]; listed as 700) [nM] | IC50 ([3]; listed as 700) [nM]
1 | Cc1cc(-c2[nH]c3ccc(C(C)C(=O)N4CC5CN(C)CC5C4)cc3c2C(C)C)ccn1 (stereo not drawn) [Example 197, 2-(3-isopropyl-2-(2-methylpyridin-4-yl)-1H-indol-5-yl)-1-(5-methylhexahydropyrrolo[3,4-c]pyrrol-2(1H)-yl)propan-1-one] | 3290 | 130 | 200 | – | – | –
2 | Cc1cc(-c2[nH]c3ccc(C(C)C(=O)N4CCC5(CCN(C)C5)CC4)cc3c2C(C)C)ccn1 (stereo not drawn) [Example 198, 2-(3-isopropyl-2-(2-methylpyridin-4-yl)-1H-indol-5-yl)-1-(2-methyl-2,8-diazaspiro[4.5]decan-8-yl)propan-1-one] | 1310 | 72 | 46 | – | – | –
3 | Cc1cc(-c2[nH]c3ccc(C(C)C(=O)N4CCC(CN)C4)cc3c2C(C)C)ccn1 (stereo not drawn) [Example 199, 1-(3-(aminomethyl)pyrrolidin-1-yl)-2-(3-isopropyl-2-(2-methylpyridin-4-yl)-1H-indol-5-yl)propan-1-one] | 1210 | 303 | 443 | – | – | –
4 | Cc1cc(-c2[nH]c3ccc(C(C)C(=O)N4CCCC5(CCCCC5N)C4)cc3c2C(C)C)ccn1 (stereo not drawn) [Example 200, 1-(7-amino-2-azaspiro[5.5]undecan-2-yl)-2-(3-isopropyl-2-(2-methylpyridin-4-yl)-1H-indol-5-yl)propan-1-one] | – | – | – | 690 | 69 | 12
5 | Cc1cc(-c2[nH]c3ccc(C(C)C(=O)N4CCCC5(CCCCC5N)C4)cc3c2C(C)C)ccn1 (stereo not drawn) [Example 201, 1-(7-amino-2-azaspiro[5.5]undecan-2-yl)-2-(3-isopropyl-2-(2-methylpyridin-4-yl)-1H-indol-5-yl)propan-1-one] | 1870 | 70 | 74 | – | – | –
6 | Cc1cc(-c2[nH]c3ccc(C(C)C(=O)N4CCC(CN)CC4)cc3c2C(C)C)ccn1 (stereo not drawn) [Example 202, 1-(4-(aminomethyl)piperidin-1-yl)-2-(3-isopropyl-2-(2-methylpyridin-4-yl)-1H-indol-5-yl)propan-1-one] | 1350 | 534 | 174 | – | – | –
7 | Cc1cc(-c2[nH]c3ccc(C(C)C(=O)N4CCCC(CN)C4)cc3c2C(C)C)ccn1 (stereo not drawn) [Example 205, 1-(3-(aminomethyl)piperidin-1-yl)-2-(3-isopropyl-2-(2-methylpyridin-4-yl)-1H-indol-5-yl)propan-1-one] | 2460 | 341 | 277 | – | – | –
8 | Cc1cc(-c2[nH]c3ccc(C(C)C(=O)NC[C@@H]4CCNC4)cc3c2C(C)C)ccn1 (stereo partly drawn) [Example 208, 2-(3-isopropyl-2-(2-methylpyridin-4-yl)-1H-indol-5-yl)-N—(((R)-pyrrolidin-3-yl)methyl)propanamide] | 7310 | 2570 | 1290 | – | – | –
9 | Cc1cc(-c2[nH]c3ccc(C(C)C(=O)N(C)C4CN5CCC4CC5)cc3c2C(C)C)ccn1 (stereo not drawn) [Example 211, 2-(3-isopropyl-2-(2-methylpyridin-4-yl)-1H-indol-5-yl)-N-methyl-N-(quinuclidin-3-yl)propanamide] | 472 | 51 | 50 | – | – | –
10 | Cc1cc(-c2[nH]c3ccc(C(C)C(=O)NC[C@H]4CCNC4)cc3c2C(C)C)ccn1 (stereo partly drawn) [Example 212, 2-(3-isopropyl-2-(2-methylpyridin-4-yl)-1H-indol-5-yl)-N—(((S)-pyrrolidin-3-yl)methyl)propanamide] | 5000 | 1470 | 821 | – | – | –
11 | Cc1cc(-c2[nH]c3ccc(C(C)C(=O)NCC4CCCNC4)cc3c2C(C)C)ccn1 (stereo not drawn) [Example 213, 2-(3-isopropyl-2-(2-methylpyridin-4-yl)-1H-indol-5-yl)-N-(piperidin-3-ylmethyl)propanamide] | 2640 | 241 | 466 | – | – | –
12 | Cc1cc(-c2[nH]c3ccc(C(C)C(=O)NC4C[C@H]5CC[C@@H](C4)N5C)cc3c2C(C)C)ccn1 (stereo partly drawn) [Example 214, 2-(3-isopropyl-2-(2-methylpyridin-4-yl)-1H-indol-5-yl)-N-((1R,5S)-8-methyl-8-azabicyclo[3.2.1]octan-3-yl)propanamide] | 4670 | 167 | 107 | – | – | –
13 | Cc1cc(-c2[nH]c3ccc(C(C)C(=O)N[C@@H]4CCCC[C@H]4N)cc3c2C(C)C)ccn1 (stereo partly drawn) [Example 215, N-((1R,2R)-2-aminocyclohexyl)-2-(3-isopropyl-2-(2-methylpyridin-4-yl)-1H-indol-5-yl)propanamide] | 1370 | 174 | 148 | – | – | –

Continued, values first:

Row | IC50 [1] [nM] | IC50 [2] [nM] | IC50 [3] [nM] | IC50 ([1]; listed as 700) [nM] | IC50 ([2]; listed as 700) [nM] | IC50 ([3]; listed as 700) [nM] | Compound
14 | 912 | 75 | 273 | – | – | – | Cc1cc(-c2[nH]c3ccc(C(C)C(=O)N[C@@H]4CCCNC4)cc3c2C(C)C)ccn1 (stereo partly drawn) [Example 195, 2-(3-isopropyl-2-(2-methylpyridin-4-yl)-1H-indol-5-yl)-N—((R)-piperidin-3-yl)propanamide]
15 | 866 | 88 | 51 | – | – | – | Cc1cc(-c2[nH]c3ccc(C(C)C(=O)N[C@@H]4CCCNC4)cc3c2C(C)C)ccn1 (stereo partly drawn) [Example 196, 2-(3-isopropyl-2-(2-methylpyridin-4-yl)-1H-indol-5-yl)-N—((R)-piperidin-3-yl)propanamide]
16 | 746 | 365 | 296 | – | – | – | Cc1cc(-c2[nH]c3ccc(C(C)C(=O)N4CCC(N)CC4)cc3c2C(C)C)ccn1 (stereo not drawn) [Example 203, 1-(4-aminopiperidin-1-yl)-2-(3-isopropyl-2-(2-methylpyridin-4-yl)-1H-indol-5-yl)propan-1-one]
17 | 939 | 119 | 74 | – | – | – | Cc1cc(-c2[nH]c3ccc(C(C)C(=O)N4CCC[C@H](N)C4)cc3c2C(C)C)ccn1 (stereo partly drawn) [Example 204, 1-((S)-3-aminopiperidin-1-yl)-2-(3-isopropyl-2-(2-methylpyridin-4-yl)-1H-indol-5-yl)propan-1-one]
18 | 686 | 126 | 517 | – | – | – | Cc1cc(-c2[nH]c3ccc(C(C)C(=O)N4CCCC(CCN)C4)cc3c2C(C)C)ccn1 (stereo not drawn) [Example 206, 1-(3-(2-aminoethyl)piperidin-1-yl)-2-(3-isopropyl-2-(2-methylpyridin-4-yl)-1H-indol-5-yl)propan-1-one]
19 | 396 | 156 | 172 | – | – | – | Cc1cc(-c2[nH]c3ccc(C(C)C(=O)N(C)C4CCNCC4)cc3c2C(C)C)ccn1 (stereo not drawn) [Example 207, 2-(3-isopropyl-2-(2-methylpyridin-4-yl)-1H-indol-5-yl)-N-methyl-N-(piperidin-4-yl)propanamide]
20 | 685 | 96 | 103 | – | – | – | Cc1cc(-c2[nH]c3ccc(C(C)C(=O)N(C)C4CCCNC4)cc3c2C(C)C)ccn1 (stereo not drawn) [Example 209, 2-(3-isopropyl-2-(2-methylpyridin-4-yl)-1H-indol-5-yl)-N-methyl-N-(piperidin-3-yl)propanamide]
21 | 718 | 210 | 280 | – | – | – | Cc1cc(-c2[nH]c3ccc(C(C)C(=O)N(C)C4CCCNC4)cc3c2C(C)C)ccn1 (stereo not drawn) [Example 210, 2-(3-isopropyl-2-(2-methylpyridin-4-yl)-1H-indol-5-yl)-N-methyl-N-(piperidin-3-yl)propanamide]
22 | 1060 | 159 | 131 | – | – | – | Cc1cc(-c2[nH]c3ccc(C(C)C(=O)N[C@@H]4CCCC[C@H]4N)cc3c2C(C)C)ccn1 (stereo partly drawn) [Example 216, N-((1R,2R)-2-aminocyclohexyl)-2-(3-isopropyl-2-(2-methylpyridin-4-yl)-1H-indol-5-yl)propanamide]
